# From patent publication US20060057657A1, “Stem cell selection and differentiation” (Oregon Health & Science University Technology & Research …, priority 2002, published 2006)
# Key:
# Type in all cases: cell-based, mouse
# ES cells [1] = assay: JC-1 fluorescence sensitivity to MDR inhibitors (JC-1 staining and flow cytometry); settings: CsA 20 μM, verapamil 200 μM, reserpine 10 μM
# Description: ES cells were maintained in ES cell media consisting of DMEM (no pyruvate, high glucose) (Gibco-BRL), 15% fetal calf serum (FCS) (Hyclone), and supplements (as described in Robertson, E. J. (1987) IRL Press Limited, Oxford, page 71-112). Supplemental Leukemia Inhibitory Factor (LIF) (1:1000 dilution) was prepared by transfecting COS-7 cells (ATCC) with a LIF expression vector, pCAGGS-LIF, then collecting and testing the supernatant 48 hours later (as described in Smith, A. (1991) Journal of Tissue Culture Methods 13:89-94). Irradiated mouse embryonic fibroblasts (MEFs) were derived from d13 embryos for use as feeder cells (as described in Robertson (1987) (supra)). […]
# For MDR inhibitor dose response assays, cells were trypsinized for 15 minutes, quenched with ES cell media, triturated to a single cell suspension, and centrifuged at 1000 rpm for 5 minutes. […] Following centrifugation, cells were washed […] with cold HBSS, centrifuged and resuspended in cold PBS at the same concentration, placed on ice, and analyzed within 60 minutes (as described in Cossarizza et al. (1993) Biochem. Biophys. Res. Commun. 197:40-45). […]
# Using the cationic fluorescent dye, JC-1, functionally distinct populations of ES cells were identified. […] Generally, less than 5% of the cells maintained a “JC-1 green only” fluorescence profile when treated with any of these inhibitors. […]
# ES cells [2] = assay: ES cell proliferation rate / doubling time under treatment
# Description: If grown in galactose as the sole carbon source, a sub-population of cells need to engage in active oxidative phosphorylation to convert galactose to glucose. In one embodiment, ES cells are selected in galactose-containing culture medium for an incubation period of about four days.
# (§1) In order to establish the relationship between ES cell JC-1 fluorescence, respiration and differentiation permissiveness, cells may be grown under hypoxic (<2% oxygen) or normnoxic conditions and assayed for JC-1 red/green ratio, oxygen consumption and lactate secretion, proliferation rate, ES cell self-renewal (STAT3 activity), and differentiation permissiveness by chimeric assays. ES cells with high mitochondrial membrane potential (as shown by high JC-1 red/green ratio) display low differentiation permissiveness, while those with low mitochondrial membrane potential (JC-1 green) display high differentiation permissiveness. […] ES cells on galactose also consume about 50% more oxygen than those sustained on glucose. ES cell proliferation rates for control and hypoxic cells (both with and without LIF) may be similar. […] STAT3 activity may be similar for normoxic and hypoxic cells.
# ES cells [3] = assay: Lactate secretion of ES cells; settings: after 24 hours; normoxic and hypoxic ES cells about 80 mg/dl
# Description: as §1
# ES cells [4] = assay: Oxygen consumption of ES cells; settings: ES cells on galactose
# Description: as §1
# ES cells [5] = assay: JC-1 red/green fluorescence (mitochondrial membrane potential) by flow analysis; settings: galactose-containing culture medium, about four days
# Description: In order to assess if cells are primarily using oxidative phosphorylation or glycolysis, mitochondrial inner-membrane potential can be assayed by JC-1 fluorescence (1 ug/ml) in ES cells grown in both the presence (undifferentiated) and absence (differentiation) of LIF.
# The cells of Example 1 were stained with 1 μg/ml 5,5′,6,6′-tetrachloro-1,1′,3,3′-tetraethyl-benzimidazolylcarbocyanine iodide (JC-1, Molecular Probes, Eugene, Oreg.) and flow cytometry was performed using a FACSCalibur flow cytometer (Becton Dickinson, San Jose, Calif.). Cells were stained as above and sorted using a FACSVantage SE cell sorter (Becton Dickinson).
smiles,measurement,setting,value
COC(=O)[C@H]1[C@H]2C[C@@H]3c4[nH]c5cc(OC)ccc5c4CCN3C[C@H]2C[C@@H](OC(=O)c2cc(OC)c(OC)c(OC)c2)[C@@H]1OC [reserpine],shift of JC-1 fluorescence on addition of inhibitor,ES cells [1],dramatic shift of the majority of cells towards red fluorescence
COc1ccc(CCN(C)CCCC(C#N)(c2ccc(OC)c(OC)c2)C(C)C)cc1OC (stereo not drawn) [verapamil],shift of JC-1 fluorescence on addition of inhibitor,ES cells [1],dramatic shift of the majority of cells towards red fluorescence
CC[C@H]1/C=C/C=C/C[C@@H](C)[C@H](O)[C@@](C)(O)C(=O)[C@@H](C)[C@H](O)[C@@H](C)C(=O)[C@@H](C)[C@H](O)[C@@H](C)/C=C/C(=O)O[C@@H]2[C@H](C)[C@H](CC1)O[C@]1(CC[C@H](C)[C@H](C[C@@H](C)O)O1)[C@H]2C [oligomycin],effect on proliferation rates,ES cells [2]; oligomycin 3 μM or FCCP+ oligomycin,dramatically reduces proliferation rates
O=C[C@H](O)[C@@H](O)[C@@H](O)[C@H](O)CO [galactose],lactate secretion,ES cells [3],< 10 mg/dL
same,increase of doubling time,"ES cells [2]; galactose-containing culture medium, about four days",about 25%
same,doubling time,"ES cells [2]; galactose-containing culture medium, about four days, 16 hours under standard conditions",20 h
same,"oxygen consumption, more than cells sustained on glucose",ES cells [4],about 50%
same,sub-population of ES cells showing JC-1 red fluorescence,ES cells [5],slightly increased
"O=CC[C@@H](O)[C@H](O)[C@H](O)CO [2-dG, 2-deoxy glucose]",reduction of proliferation rate,ES cells [2]; 2-deoxy glucose 0.5 mM,≤ 3 fold
